Source: paper PMC4452343, “Monitoring β-arrestin recruitment via β-lactamase enzyme fragment complementation: purification of peptide E as a low-affinity ligand for mammalian bombesin receptors” (PLoS ONE, 2015)

Tests used:
hOX1R = assay: ß-lactamase EFC assay of ß-arrestin recruitment, OX1R reporter cells; type: cell-based, human; details: 14 h ligand incubation, CCF4/AM substrate
Method: CHO cells stably expressing both the GPCR-omega chimera and ß-arrestin 2-alpha chimera were plated either in 6 well plates or in 96 well plates. After 24 h, ligands or HPLC fractions were added to the wells, and incubated for 14 h. After incubation, cells were washed once in HBSS and then incubated with CCF4/AM substrate for 2 h. ß-lactamase activity was measured either by FACS or with a plate reader (Victor V: Perkin Elmer).

hNMBR = target: T1, hNMBR (Homo sapiens, UniProt P28336); assay: NFAT-luciferase reporter assay in CHO cells expressing hNMBR; type: cell-based; details: 6 h incubation, read-out: EC50, activation of NFAT-promotor
T1 construct: expressed in transfected cells; host or cells: CHO cells stably expressing hNMBR
T1 sequence (P28336 whole entry): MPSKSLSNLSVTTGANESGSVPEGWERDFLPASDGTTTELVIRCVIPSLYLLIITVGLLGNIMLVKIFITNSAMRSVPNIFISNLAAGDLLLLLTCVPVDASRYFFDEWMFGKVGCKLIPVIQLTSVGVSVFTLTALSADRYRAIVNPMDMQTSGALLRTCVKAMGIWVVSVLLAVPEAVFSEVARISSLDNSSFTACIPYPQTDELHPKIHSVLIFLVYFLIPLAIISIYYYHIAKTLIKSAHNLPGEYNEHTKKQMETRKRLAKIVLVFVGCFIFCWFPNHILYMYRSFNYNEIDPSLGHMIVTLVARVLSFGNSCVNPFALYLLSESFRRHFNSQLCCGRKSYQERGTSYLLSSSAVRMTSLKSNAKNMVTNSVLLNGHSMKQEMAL
Method: CHO cells stably expressing the GPCR of interest were transiently transfected with NFAT-TA-Luc plasmid (Clontech). Cells were then left overnight before being plated in 96 well plates (20000 cells/well). After an additional 24 h, the synthetic ligands were added to the wells and incubated for 6 h. Following incubation, firefly luciferase assays were performed using the Steady-Glo Luciferase Assay System (Promega). Luminescence was detected with a plate reader (Victor V: Perkin Elmer), according to the manufacturer’s instructions. EC50 values were calculated using Workout 2.0 Data Analysis Software (Perkin Elmer).

| Molecule | Response in ß-lactamase EFC assay (ß-arrestin recruitment to OX1R) (hOX1R) | EC50 (hNMBR) [nM] |
| --- | --- | --- |
| orexin-A (QPLPDCCRQKTCSCRLYELLHGAGNHAAGILTL) [unrelated peptide; ligand of orexin type 1 receptor, used as control] | responded specifically to orexin-A | – |
| CSCC[C@H](NC(=O)[C@H](Cc1ccccc1)NC(=O)[C@H](Cc1cnc[nH]1)NC(=O)CNC(=O)[C@@H](NC(=O)[C@H](C)NC(=O)[C@H](Cc1c[nH]c2ccccc12)NC(=O)[C@H](CC(C)C)NC(=O)[C@H](CC(N)=O)NC(=O)CN)[C@@H](C)O)C(N)=O [NMB, neuromedin B] | – | 0.16 |
